According to ChEMBL document CHEMBL5500376, “Novel pyxinol amide derivatives bearing an aliphatic heterocycle as P-glycoprotein modulators for overcoming multidrug resistance” (Eur J Med Chem, 2024):

Experiments:
[1] = Cytotoxicity against human KBV cells assessed as cell survival at 10 uM measured after 72 hrs incubation by MTT assay relative to control; type: functional; conditions: read-out: Activity
[2] = Reversal of multi-drug resistance in human KVB cells assessed as increase in PTX-induced cytotoxicity by measuring cell survival at 5 uM measured after 72 hrs incubation in presence of 100 nM paclitaxel by MTT assay relative to control; type: functional, KBV
[3] = Reversal of multi-drug resistance in human KVB cells assessed as increase in PTX-induced cytotoxicity by measuring cell survival at 10 uM measured after 72 hrs incubation in presence of 100 nM paclitaxel by MTT assay relative to control; type: functional, KBV
[4] = Reversal fold, ratio of PTX IC50 to PTX IC50 in presence of test compound for reversal of multi-drug resistance in human KVB cells at 10 uM measured after 72 hrs by MTT assay; type: functional, KBV

SMILES: CC(C)(O)[C@H]1CC[C@@](C)([C@H]2CC[C@]3(C)[C@@H]2[C@H](O)C[C@@H]2[C@@]4(C)CC[C@H](NC(=O)[C@@H]5CCC(=O)O5)C(C)(C)[C@@H]4CC[C@]23C)O1
- viability at 10 µM [1]: 104%
- Activity [2]: 95%
- Activity [3]: 94%

SMILES: CC(C)(O)[C@H]1CC[C@@](C)([C@H]2CC[C@]3(C)[C@@H]2[C@H](O)C[C@@H]2[C@@]4(C)CC[C@H](NC(=O)C5CNC5)C(C)(C)[C@@H]4CC[C@]23C)O1
- viability at 10 µM [1]: 97%
- Activity [2]: 76%
- Activity [3]: 61%

SMILES: CC(C)(C)OC(=O)N1CC[C@@H]1C(=O)N[C@H]1CC[C@]2(C)[C@H]3C[C@@H](O)[C@@H]4[C@@H]([C@]5(C)CC[C@H](C(C)(C)O)O5)CC[C@@]4(C)[C@]3(C)CC[C@H]2C1(C)C
- viability at 10 µM [1]: 99%
- Activity [2]: 47%
- Activity [3]: 27%
- Ratio [4]: 100.1

SMILES: C[S+](C)[O-] [DIMETHYL SULFOXIDE]
- viability at 10 µM [1]: 100%
- Activity [2]: 100%
- Activity [3]: 100%

SMILES: CC(C)(C)OC(=O)N1CC(C(=O)N[C@H]2CC[C@]3(C)[C@H]4C[C@@H](O)[C@@H]5[C@@H]([C@]6(C)CC[C@H](C(C)(C)O)O6)CC[C@@]5(C)[C@]4(C)CC[C@H]3C2(C)C)C1
- viability at 10 µM [1]: 91%
- Activity [2]: 80%
- Activity [3]: 54%

SMILES: CC(=O)N1CCC[C@H]1C(=O)N[C@H]1CC[C@]2(C)[C@H]3C[C@@H](O)[C@@H]4[C@@H]([C@]5(C)CC[C@H](C(C)(C)O)O5)CC[C@@]4(C)[C@]3(C)CC[C@H]2C1(C)C
- viability at 10 µM [1]: 97%
- Activity [2]: 80%
- Activity [3]: 63%

SMILES: CC(C)(O)[C@H]1CC[C@@](C)([C@H]2CC[C@]3(C)[C@@H]2[C@H](O)C[C@@H]2[C@@]4(C)CC[C@H](NC(=O)[C@H]5CCCNC5)C(C)(C)[C@@H]4CC[C@]23C)O1
- viability at 10 µM [1]: 94%
- Activity [2]: 83%
- Activity [3]: 45%

SMILES: CC(C)(C)OC(=O)N1CCOC[C@H]1C(=O)N[C@H]1CC[C@]2(C)[C@H]3C[C@@H](O)[C@@H]4[C@@H]([C@]5(C)CC[C@H](C(C)(C)O)O5)CC[C@@]4(C)[C@]3(C)CC[C@H]2C1(C)C
- viability at 10 µM [1]: 89%
- Activity [2]: 81%
- Activity [3]: 55%

SMILES: CC(C)(C)OC(=O)N1CCC[C@H](C(=O)N[C@H]2CC[C@]3(C)[C@H]4C[C@@H](O)[C@@H]5[C@@H]([C@]6(C)CC[C@H](C(C)(C)O)O6)CC[C@@]5(C)[C@]4(C)CC[C@H]3C2(C)C)C1
- viability at 10 µM [1]: 93%
- Activity [2]: 76%
- Activity [3]: 47%

SMILES: CC(C)(O)[C@H]1CC[C@@](C)([C@H]2CC[C@]3(C)[C@@H]2[C@H](O)C[C@@H]2[C@@]4(C)CC[C@H](NC(=O)[C@@H]5CCNC5)C(C)(C)[C@@H]4CC[C@]23C)O1
- viability at 10 µM [1]: 99%
- Activity [2]: 67%
- Activity [3]: 49%

SMILES: CC(C)(O)[C@H]1CC[C@@](C)([C@H]2CC[C@]3(C)[C@@H]2[C@H](O)C[C@@H]2[C@@]4(C)CC[C@H](NC(=O)CC5CNC5)C(C)(C)[C@@H]4CC[C@]23C)O1
- viability at 10 µM [1]: 96%
- Activity [2]: 95%
- Activity [3]: 90%

SMILES: CC(C)(C)OC(=O)N1CC(F)(F)C[C@H]1C(=O)N[C@H]1CC[C@]2(C)[C@H]3C[C@@H](O)[C@@H]4[C@@H]([C@]5(C)CC[C@H](C(C)(C)O)O5)CC[C@@]4(C)[C@]3(C)CC[C@H]2C1(C)C
- viability at 10 µM [1]: 100%
- Activity [2]: 65%
- Activity [3]: 64%

SMILES: CC(C)(O)[C@H]1CC[C@@](C)([C@H]2CC[C@]3(C)[C@@H]2[C@H](O)C[C@@H]2[C@@]4(C)CC[C@H](NC(=O)[C@H]5CCCN5)C(C)(C)[C@@H]4CC[C@]23C)O1
- viability at 10 µM [1]: 109%
- Activity [2]: 73%
- Activity [3]: 63%

SMILES: CC(C)(C)OC(=O)N1CC[C@@H](C(=O)N[C@H]2CC[C@]3(C)[C@H]4C[C@@H](O)[C@@H]5[C@@H]([C@]6(C)CC[C@H](C(C)(C)O)O6)CC[C@@]5(C)[C@]4(C)CC[C@H]3C2(C)C)C1
- viability at 10 µM [1]: 81%
- Activity [2]: 54%
- Activity [3]: 31%
- Ratio [4]: 76

SMILES: CC(C)(C)OC(=O)N1CCCC[C@@H]1C(=O)N[C@H]1CC[C@]2(C)[C@H]3C[C@@H](O)[C@@H]4[C@@H]([C@]5(C)CC[C@H](C(C)(C)O)O5)CC[C@@]4(C)[C@]3(C)CC[C@H]2C1(C)C
- viability at 10 µM [1]: 118%
- Activity [2]: 42%
- Activity [3]: 27%

SMILES: CC(C)(O)[C@H]1CC[C@@](C)([C@H]2CC[C@]3(C)[C@@H]2[C@H](O)C[C@@H]2[C@@]4(C)CC[C@H](NC(=O)[C@H]5CCC(=O)N5)C(C)(C)[C@@H]4CC[C@]23C)O1
- viability at 10 µM [1]: 92%
- Activity [2]: 93%
- Activity [3]: 87%

SMILES: CC(C)(O)[C@H]1CC[C@@](C)([C@H]2CC[C@]3(C)[C@@H]2[C@H](O)C[C@@H]2[C@@]4(C)CC[C@H](NC(=O)[C@@H]5CCC(=O)N5)C(C)(C)[C@@H]4CC[C@]23C)O1
- viability at 10 µM [1]: 100%
- Activity [2]: 93%
- Activity [3]: 87%

SMILES: CC(C)(O)[C@H]1CC[C@@](C)([C@H]2CC[C@]3(C)[C@@H]2[C@H](O)C[C@@H]2[C@@]4(C)CC[C@H](NC(=O)[C@H]5C[C@@H](O)CN5)C(C)(C)[C@@H]4CC[C@]23C)O1
- viability at 10 µM [1]: 98%
- Activity [2]: 95%
- Activity [3]: 98%

SMILES: CC(C)(O)[C@H]1CC[C@@](C)([C@H]2CC[C@]3(C)[C@@H]2[C@H](O)C[C@@H]2[C@@]4(C)CC[C@H](NC(=O)[C@@H]5CC(F)(F)CN5)C(C)(C)[C@@H]4CC[C@]23C)O1
- viability at 10 µM [1]: 95%
- Activity [2]: 78%
- Activity [3]: 62%

SMILES: CC(C)(O)[C@H]1CC[C@@](C)([C@H]2CC[C@]3(C)[C@@H]2[C@H](O)C[C@@H]2[C@@]4(C)CC[C@H](NC(=O)[C@@H]5C[C@@H](F)CN5)C(C)(C)[C@@H]4CC[C@]23C)O1
- viability at 10 µM [1]: 99%
- Activity [2]: 78%
- Activity [3]: 66%

SMILES: CC(C)(O)[C@H]1CC[C@@](C)([C@H]2CC[C@]3(C)[C@@H]2[C@H](O)C[C@@H]2[C@@]4(C)CC[C@H](NC(=O)[C@H]5CCN5)C(C)(C)[C@@H]4CC[C@]23C)O1
- viability at 10 µM [1]: 70%
- Activity [2]: 86%
- Activity [3]: 68%

SMILES: CC1(C(=O)N[C@H]2CC[C@]3(C)[C@H]4C[C@@H](O)[C@@H]5[C@@H]([C@]6(C)CC[C@H](C(C)(C)O)O6)CC[C@@]5(C)[C@]4(C)CC[C@H]3C2(C)C)COC1
- viability at 10 µM [1]: 84%
- Activity [2]: 59%
- Activity [3]: 50%

SMILES: CC(C)(C)OC(=O)N1C[C@H](O)C[C@H]1C(=O)N[C@H]1CC[C@]2(C)[C@H]3C[C@@H](O)[C@@H]4[C@@H]([C@]5(C)CC[C@H](C(C)(C)O)O5)CC[C@@]4(C)[C@]3(C)CC[C@H]2C1(C)C
- viability at 10 µM [1]: 105%
- Activity [2]: 90%
- Activity [3]: 93%

SMILES: CC(C)(O)[C@H]1CC[C@@](C)([C@H]2CC[C@]3(C)[C@@H]2[C@H](O)C[C@@H]2[C@@]4(C)CC[C@H](NC(=O)[C@@H]5COCCN5)C(C)(C)[C@@H]4CC[C@]23C)O1
- viability at 10 µM [1]: 89%
- Activity [2]: 82%
- Activity [3]: 57%
